# Measurements as given in ChEMBL document CHEMBL1121396, “10,10-Difluoro-13-dehydroprostacyclin: a chemically and metabolically stabilized potent prostacyclin” (J Med Chem, 1980).
# How the values were obtained:
# [1] = Tested for effect to cause relaxation of […] mesenteric artery previously contracted by PGF2-alpha; assay type: functional
# [2] = Tested for effect to cause relaxation of bovine coronary artery; assay type: functional, tissue-based, Bos taurus
EC50 [1] [nM],EC50 [2] [nM],Structure (SMILES)
2.3,8.5,CCCCC[C@H](O)C#CC1C2C/C(=C\CCCC(=O)O)OC2C(F)(F)C1O (some centres undefined)
3.3,28,CCCCC[C@H](O)/C=C/[C@@H]1[C@H]2C/C(=C/CCCC(=O)O)O[C@H]2C[C@H]1O [EPOPROSTENOL]
